Source: patent US5804415A, “Prostaglandin E receptors, their DNA and production” (Takeda Chemical Industries, Ltd., priority 1992, dated 1998)

Legend:
[1] = biological target: T1, PGE2 receptor (EP3), subtype EP3α (MP660) (Mus musculus, UniProt P30557); assay: Inhibition of [3H]-PGE2 binding to MP660-transfected COS-1 cell membranes; ligand-binding test; conditions: for order of inhibition of [3H]PGE2 binding by unlabeled PGs: FIG. 2a; for potency in competing for [3H]PGE2 binding relative to PGE2 / competition for [3H]PGE2 binding: FIG. 2b; for competition for [3H]PGE2 binding: PGE analogues
T1 sequence (P30557 1-365): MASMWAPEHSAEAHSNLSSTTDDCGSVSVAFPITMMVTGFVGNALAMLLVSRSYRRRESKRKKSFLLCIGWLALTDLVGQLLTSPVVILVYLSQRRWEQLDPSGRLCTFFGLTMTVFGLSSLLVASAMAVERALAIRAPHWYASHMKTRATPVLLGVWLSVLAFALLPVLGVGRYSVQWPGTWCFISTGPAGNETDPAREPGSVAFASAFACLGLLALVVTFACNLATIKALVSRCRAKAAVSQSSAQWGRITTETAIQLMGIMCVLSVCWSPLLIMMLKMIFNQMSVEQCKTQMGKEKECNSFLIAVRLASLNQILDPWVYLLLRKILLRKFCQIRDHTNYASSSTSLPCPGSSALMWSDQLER
From the text: (§1) The cDNA of MP660 was cleaved out with EcoRI and inserted to pcDNAI (Invitrogen) and subcloned, followed by transfection of this plasmid DNA to COS-1 cells by the DEAE-dextran method [D. J. Sussmann and G. Milman, Mol. Cell. Biol., 4, 1641 (1984)]. After 72-hour cultivation, cells were harvested and cell membranes were separated [M. Hirata al., Nature, 349, 617 (1991)].

[2] = biological target: PGE2 receptor (EP2) (MP412) (Mus musculus, UniProt P32240); assay: Inhibition of [3H]-PGE2 binding to MP412-transfected COS-1 cell membranes; conditions: for order of inhibition of specific [3H]-PGE2 binding by unlabeled PG: FIG. 7; for inhibition of PGE2 binding by subtype ligands: FIG. 8
Protocol: Mouse mastocytoma P-815 cell cDNA library carring cDNAs larger than 2.0 kb was prepared according to Example 1 (2). The probe DNA was prepared by PCR using mouse EP3 cDNA as a template; this 482 bp fragment covers the transmembrane segments I-IV region of the EP3 receptor. The 2.0×10^5 clones derived from the cDNA library were screened under either high (Sambrook) or low stringency condition. […] This cDNA was transfected into COS-1 cells according to the same manner as in Example 1 (3).
After the COS-1 cells carring the plasmid DNA obtained in above (1) were cultured for 72 h, cells were harvested and cell membranes were prepared.

[3] = biological target: T2, EP3α receptor (MP660/KCR cells) (Mus musculus, UniProt P30557); assay: Forskolin-stimulated cAMP synthesis in CHO cells stably expressing EP3α (MP660/KCR cells); assay type: cell-based
T2 construct: A full-length DNA clone having a 1,095 bp open reading frame, MP660, was thus obtained; expressed in transfected cells; host or cells: CHO-dhfr (lacking dihydrofolate reductase activity) cells; FERM BP-3803)
T2 sequence (P30557 1-365): T1 sequence (P30557 1-365)
Protocol: (§2) To obtain cells that stably express the receptor gene, cDNA transfection was conducted by the method described by Nakajima et al. [J. Biol. Chem., 267, 2437 (1992)] to establish a cell line. Specifically, the EcoRI fragment of MP660 was inserted to pdKCR-dhfr [S. Oikawa et al., Biochem. Biophys. Res. Commun., 164, 39 (1989)], a eukaryotic cell expression vector having the mouse dhfr gene as a selection marker. This plasmid was transfected to CHO-dhfr (lacking dihydrofolate reductase activity) cells [G. Urlaub and L. A. Chasin, Proc. Natl. Acad. Sci. USA, 77, 4216 (1980)] by the calcium phosphate method [F. L. Graham and A. J. van der Eb, Virology, 52, 456 (1973)]. The cells were subjected to selection culture in α-modified Eagle's medium [S. Oikawa et al., Biochem. Biophys. Res. Commun., 164, 39 (1989)] which contained no ribonucleoside and deoxyribonucleoside and which contained 100 unit/ml penicillin, 100 μg/ml streptomycin and 10% dialyzed bovine fetal serum (Cell Culture Laboratories). The cells which proliferated were cloned and clone cells were obtained. EP3α receptor cDNA transfection was confirmed by the RNA blotting method.

[4] = test system: EP3β receptor (MP653/KCR cells); assay: Forskolin-stimulated cAMP synthesis in CHO cells stably expressing EP3β (MP653/KCR cells); assay type: cell-based, mouse
Protocol: as §2, with “of MP653” for “of MP660”, “to CHO-dhfr(lacking” for “to CHO-dhfr (lacking”, “method [(F.” for “method [F.”, “cloned to have” for “cloned and”, “clone cells. EP3β” for “clone cells were obtained. EP3α”, “method. Using thus-obtained CHO cells which constantly express the EP3β receptor [MP653/KCR cells; IFO 50397, FERM BP-4183], the effect of PGE2 on forskolin-stimulated cAMP synthesis or M&B28, 767, an EP3 -specific agonist was assessed.” for “method.”

[5] = biological target: T3, EP2 receptor (MP412) (Mus musculus, UniProt P32240); assay: cAMP assay in MP412-transfected COS-1 cells; assay type: cell-based
T3 construct: cAMP and inositol phosphate tests
Protocol: For cAMP assay, the plasmid DNA was transfected into COS-1 cells by the lipofection method (P. L. Felgner et al., Proc. Natl. Acad. Sci., 84, 7413 (1987)) and cultured for 72 h in a 24-well plate. Cyclic AMP levels in the cells were determined according to the method of Nakajima et al. (J. Biol. Chem. 267, 2437 (1992)).

[6] = test system: EP3β receptor (MP653); assay: Ligand-binding assay, [3H]-PGE2 binding to MP653-transfected COS-1 cell membranes; design: species or system mouse
From the text: as §1, with “MP653” for “MP660”, “Hirata et” for “Hirata”, “(1991)]. […] Also, the PGE2 receptor obtained was identified as the subtype EP3β receptor. The result of inhibitory activities of various ligands on the binding of [^3 H]-PGE2 to the MP653-transfected cell membrance was substantially the same as on the binding of [^3 H]-PGE2 to the MP660--transfected cell membrance obtained in Example 1.” for “(1991)].”

[7] = test system: membranes of untransfected cells; assay: [3H]-PGE2 binding to membranes of untransfected COS-1 cells (control); conditions: untransfected COS-1 cell membranes
From the text: The cDNA of MP660 was cleaved out with EcoRI and inserted to pcDNAI (Invitrogen) and subcloned, followed by transfection of this plasmid DNA to COS-1 cells by the DEAE-dextran method [D. J. Sussmann and G. Milman, Mol. Cell. Biol., 4, 1641 (1984)]. After 72-hour cultivation, cells were harvested and cell membranes were separated [M. Hirata al., Nature, 349, 617 (1991)]. […] Also, the PGE2 receptor obtained was identified as the subtype EP3α receptor.
After the COS-1 cells carring the plasmid DNA obtained in above (1) were cultured for 72 h, cells were harvested and cell membranes were prepared. […] The lack of binding activity of butaprost in mouse EP2 might indicate that the action of butaprost is species specific or there may be other forms of EP2 receptor subtype.

[8] = test system: EP2; conditions: literature; cited from earlier work

PGE2 receptor (EP2) (MP412), sequence (P32240 whole entry, the tested form may be a part): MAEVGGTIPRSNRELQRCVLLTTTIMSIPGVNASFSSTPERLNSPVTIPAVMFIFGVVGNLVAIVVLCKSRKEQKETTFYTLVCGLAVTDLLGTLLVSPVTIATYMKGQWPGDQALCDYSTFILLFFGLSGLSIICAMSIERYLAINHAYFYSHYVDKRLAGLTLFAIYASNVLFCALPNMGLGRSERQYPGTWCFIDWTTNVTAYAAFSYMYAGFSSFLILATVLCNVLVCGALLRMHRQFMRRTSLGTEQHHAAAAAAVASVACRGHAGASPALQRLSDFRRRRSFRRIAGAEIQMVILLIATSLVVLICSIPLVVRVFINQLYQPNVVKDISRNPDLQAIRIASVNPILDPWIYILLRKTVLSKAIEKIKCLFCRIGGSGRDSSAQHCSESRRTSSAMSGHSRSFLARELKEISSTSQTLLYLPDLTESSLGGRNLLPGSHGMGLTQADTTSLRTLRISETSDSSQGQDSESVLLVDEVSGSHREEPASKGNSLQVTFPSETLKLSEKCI
T3 sequence (P32240 whole entry): as the sequence (P32240 whole entry, the tested form may be a part) above

| SMILES | order of inhibition of [3H]PGE2 binding by unlabeled PGs [1] | order of inhibition of specific [3H]-PGE2 binding by unlabeled PG [2] | competition for [3H]PGE2 binding [1] | inhibition of PGE2 binding by subtype ligands [2] | further results |
| --- | --- | --- | --- | --- | --- |
| CC#CCC(C)[C@H](O)/C=C/[C@@H]1[C@H]2C/C(=C/CCCC(=O)O)C[C@H]2C[C@H]1O (some centres unmarked) [iloprost] | PGE2 =PGE1 >iloprost, a PGI2 analogue>PGF2α >PGD2 | PGE2 (.largecircle.)=PGE1 (.circle-solid.)>>iloprost(.box-solid.), a stable PGI2 analogue ≥PGF2α (Δ)PGD2 (.quadrature.) |  |  |  |
| O=C(CC/C=C\CC[C@H]1C(=O)C[C@@H](O)[C@@H]1OCC(O)COc1ccccc1)Oc1ccc(NC(=O)c2ccccc2)cc1 (some centres unmarked) [GR 63799X] |  |  | specifically competed for the[^3 H]PGE2 binding with equal potency |  | potency in competing for [3H]PGE2 binding relative to PGE2 [1]: more potent than PGE2 itself |
| CCCCC[C@H](O)/C=C/[C@H]1[C@H](O)CC(=O)[C@@H]1CCCCCCC(=O)O [PGE1] | PGE2 =PGE1 >iloprost, a PGI2 analogue>PGF2α >PGD2 | PGE2 (.largecircle.)=PGE1 (.circle-solid.)>>iloprost(.box-solid.), a stable PGI2 analogue ≥PGF2α (Δ)PGD2 (.quadrature.) |  |  |  |
| CCCCC[C@H](O)/C=C/[C@H]1[C@H](O)CC(=O)[C@@H]1C/C=C\CCCC(=O)O [PGE2, prostaglandin E2] | PGE2 =PGE1 >iloprost, a PGI2 analogue>PGF2α >PGD2 | PGE2 (.largecircle.)=PGE1 (.circle-solid.)>>iloprost(.box-solid.), a stable PGI2 analogue ≥PGF2α (Δ)PGD2 (.quadrature.) |  |  | effect on forskolin-induced cAMP synthesis/accumulation ([3]; FIG. 3): dosedependent decrease; IC50 ([3]; forskolin-induced, FIG. 3, read-out: IC50 (inhibition of forskolin-induced cAMP synthesis)): 0.1 nM; effect on forskolin-stimulated cAMP synthesis [4]: cAMP synthesis in MP653/KCR cells is inhibited; inhibition of forskolin-induced cAMP formation ([5]; forskolin): neither inhibited forskolin-induced cAMP formation; cAMP level ([5]; no forskolin stated, FIG. 9): dose-dependently increased cAMP level |
| CCCCC[C@H](O)/C=C/[C@H]1C(=O)C[C@H](O)[C@@H]1C/C=C\CCCC(=O)O [PGD2] | PGE2 =PGE1 >iloprost, a PGI2 analogue>PGF2α >PGD2 | PGE2 (.largecircle.)=PGE1 (.circle-solid.)>>iloprost(.box-solid.), a stable PGI2 analogue ≥PGF2α (Δ)PGD2 (.quadrature.) |  |  |  |
| CCCCC[C@H](O)/C=C/[C@H]1[C@H](O)CC(=O)[C@@H]1C/C=C\CCCC(=O)O [[3H]-PGE2] |  |  |  |  | specific binding of [3H]-labeled prostaglandin [1]: found to show specific binding; specific binding of [3H]-labeled prostaglandin [6]: found to show specific binding; specific binding of [3H]-labeled prostaglandin [2]: found to show specific binding; binding to membranes of untransfected cells ([7]; listed as [^3 H]-PGE2): almost negligible; binding to membranes of untransfected cells ([7]; listed as [^3 H]PGE2): did not bind to membranes of untransfected cells |
| CCCCC[C@H](O)/C=C/[C@@H]1[C@@H](C/C=C\CCCC(=O)O)[C@@H](O)C[C@H]1O [PGF2α] | PGE2 =PGE1 >iloprost, a PGI2 analogue>PGF2α >PGD2 | PGE2 (.largecircle.)=PGE1 (.circle-solid.)>>iloprost(.box-solid.), a stable PGI2 analogue ≥PGF2α (Δ)PGD2 (.quadrature.) |  |  |  |
| CC(=O)NNC(=O)N1Cc2ccccc2Oc2ccc(Cl)cc21 [SC-19220] |  |  | no competition was found at all | did not inhibit it |  |
| O=C(O)CCCCCC[C@H]1C(=O)CC[C@@H]1/C=C/[C@@H](O)COc1ccccc1 [M&B 28,767] |  |  | specifically competed for the[^3 H]PGE2 binding with equal potency | more weakly | potency in competing for [3H]PGE2 binding relative to PGE2 [1]: more potent than PGE2 itself; effect on forskolin-induced cAMP synthesis/accumulation ([3]; FIG. 3): inhibited forskolin-induced cAMP synthesis; potency in inhibiting forskolin-induced cAMP synthesis relative to PGE2 ([3]; FIG. 3): more potent than (PGE2; effect on forskolin-stimulated cAMP synthesis [4]: cAMP synthesis in MP653/KCR cells is inhibited; cross-reaction to EP2 [8]: weak cross-reaction |
| CCCCC(C)(O)C/C=C/[C@H]1[C@H](O)CC(=O)[C@@H]1CCCCCCC(=O)OC (mixture of isomers) [misoprostol] |  |  |  | inhibited |  |
| CS(=O)(=O)NC(=O)CCC/C=C\C[C@H]1C(=O)C[C@@H](O)[C@@H]1/C=C/[C@@H](O)COc1ccccc1 [sulprostone] |  |  |  | did not inhibit it |  |
| CCCC1([C@H](O)C/C=C/[C@H]2[C@H](O)CC(=O)[C@@H]2CCCCCCC(=O)OC)CCC1 [butaprost] |  |  | no competition was found at all | did not inhibit it |  |
